# Like-named read-outs stand apart in the source and are kept apart here.
# Experiments:
# [1] = test system: SK-Mel-28; experiment: CellTiter-Glo proliferation and viability assay; format: cell-based; conditions: Homo sapiens
# [2] = test system: SK-Mel-5; experiment: CellTiter-Glo proliferation and viability assay; format: cell-based; conditions: Homo sapiens
# [3] = test system: LOVO; experiment: CellTiter-Glo proliferation and viability assay; format: cell-based; conditions: Homo sapiens
# [4] = test system: KATOIII; experiment: CellTiter-Glo proliferation and viability assay; format: cell-based; conditions: Homo sapiens, KATO III
# [5] = test system: HuH-7; experiment: CellTiter-Glo proliferation and viability assay; format: cell-based; conditions: Homo sapiens, read-out: Rel IC50
# [6] = test system: SW900; experiment: CellTiter-Glo proliferation and viability assay; format: cell-based; conditions: Homo sapiens
# [7] = test system: C8166; experiment: CellTiter-Glo proliferation and viability assay; format: cell-based; conditions: Homo sapiens
# [8] = test system: NCI-H2052; experiment: CellTiter-Glo proliferation and viability assay; format: cell-based; conditions: Homo sapiens
# [9] = test system: CCRF-CEM; experiment: CellTiter-Glo proliferation and viability assay; format: cell-based; conditions: Homo sapiens, read-out: Abs IC50
# [10] = test system: U-118-MG; experiment: CellTiter-Glo proliferation and viability assay; format: cell-based; conditions: Homo sapiens
# [11] = test system: NCI-H1436; experiment: CellTiter-Glo proliferation and viability assay; format: cell-based; conditions: Homo sapiens
# [12] = test system: BT-474; experiment: CellTiter-Glo proliferation and viability assay; format: cell-based; conditions: Homo sapiens
# [13] = test system: NCI-H1694; experiment: CellTiter-Glo proliferation and viability assay; format: cell-based; conditions: Homo sapiens
# [14] = test system: HT-29; experiment: CellTiter-Glo proliferation and viability assay; format: cell-based; conditions: Homo sapiens
# [15] = test system: LN 18; experiment: CellTiter-Glo proliferation and viability assay; format: cell-based; conditions: Homo sapiens
# [16] = test system: MDA-MB-436; experiment: CellTiter-Glo proliferation and viability assay; format: cell-based; conditions: Homo sapiens
# [17] = test system: NCI-H1793; experiment: CellTiter-Glo proliferation and viability assay; format: cell-based; conditions: Homo sapiens
# [18] = test system: phospho-MEK and phospho-ERK in A375 cells; experiment: Immunoblotting (Western Blot) analysis of phospho-MEK and phospho-ERK; format: cell-based, human
# Protocol: Testing is carried out at doses of 0, and 11 serial dilutions ranging from 0.17 to 10000 nM. Protein lysates are generated by treatment of the cells with RIPA lysis buffer from Millipore. Western blotting analysis is performed substantially as described in Yadav et al, Molecular Carcinogenesis, 2011, 50: 346-52. Briefly, SDS-PAGE is performed on cell lysates containing 20 ug of total protein using 4-20% Novex® tri-glycine gradient gels (Invitrogen). Protein is transferred onto […] nitrocellulose membranes using NuPAGE® Transfer Buffer (Invitrogen) and 10% methanol at 100 V, 4° C. for 1 hr. Generally, the primary antibody is used at 1:1000 dilution, and secondary antibody at 1:20000 dilution. Proteins are detected using the Odyssey Infrared Imaging System (Li-COR Biosciences). Antibodies against ERK1/2, phospho-ERK1/2, phospho-MEK1/2, and actin are obtained from Cell Signaling Technology.
# Phospho-ERK activity was substantially eliminated at 41 nM.
# [19] = Solubility; format: physicochemical
compound,measurement,setting,value
"CNc1ncc2cc(-c3cc(NC(=O)NCCC(C)(C)C)c(F)cc3C)c(C)nc2n1 [Example 1, 1-(3,3-Dimethylbutyl)-3-(2-fluoro-4-methyl-5-(7-methyl-2-(methylamino)pyrido[2,3-d]pyrimidin-6-yl)phenyl)urea]",IC50,"[1]; SK-MEL-28, read-out: Abs IC50",0.04 nM
same,IC50,"[1]; SK-MEL-28, read-out: Rel IC50",0.03 nM
same,IC50,"[1]; SK-Mel-28, B-Raf V600E, melanoma, CellTiter-Glo, read-out: IC50",29 nM
same,IC50,[2]; read-out: Abs IC50,0.13 nM
same,IC50,[2]; read-out: Rel IC50,0.06 nM
same,IC50,[3]; read-out: Abs IC50,0.19 nM
same,IC50,[3]; read-out: Rel IC50,0.12 nM
same,IC50,[4]; read-out: Abs IC50,0.33 nM
same,IC50,[4]; read-out: Rel IC50,0.33 nM
same,IC50,[5],0.13 nM
same,IC50,[6]; read-out: Abs IC50,0.69 nM
same,IC50,[6]; read-out: Rel IC50,0.23 nM
same,IC50,[7]; read-out: Abs IC50,1.09 nM
same,IC50,[7]; read-out: Rel IC50,0.56 nM
same,IC50,[8]; read-out: Abs IC50,1.27 nM
same,IC50,[8]; read-out: Rel IC50,0.33 nM
same,IC50,[9],1.5 nM
same,IC50,[10]; read-out: Abs IC50,5.21 nM
same,IC50,[10]; read-out: Rel IC50,0.76 nM
same,IC50,[11]; read-out: Abs IC50,8.35 nM
same,IC50,[11]; read-out: Rel IC50,12.7 nM
same,IC50,[12]; read-out: Abs IC50,11.6 nM
same,IC50,[12]; read-out: Rel IC50,10.9 nM
same,IC50,[13]; read-out: Abs IC50,15.1 nM
same,IC50,[13]; read-out: Rel IC50,16.3 nM
same,IC50,"[14]; HT-29, read-out: Abs IC50",> 20 nM
same,IC50,"[14]; HT-29, read-out: Rel IC50",0.06 nM
same,IC50,"[14]; HT-29, B-Raf V600E, colon, CellTiter-Glo, read-out: IC50",7.3 nM
same,IC50,[15]; read-out: Abs IC50,> 20 nM
same,IC50,[15]; read-out: Rel IC50,> 20 nM
same,IC50,[16]; read-out: Abs IC50,> 20 nM
same,IC50,[16]; read-out: Rel IC50,0.26 nM
same,IC50,[17]; read-out: Abs IC50,> 20 nM
same,IC50,[17]; read-out: Rel IC50,0.36 nM
same,concentration at which phospho-ERK activity was substantially eliminated,[18],41 nM
same,phospho-MEK and phospho-ERK activities,[18],inhibited phospho-MEK and phospho-ERK activities
same,solubility,[19],poor
